Laboratory results: PubChem BioAssay AID2060894 (Molecular Pharmacology Branch, DTP, NCI, 2025)
pIC50: −log10 of the molar value.

Test system: K12877-001-R-J1-PDC complex spheroid viability
Test: Anticancer human tumor K12877-001-R-J1-PDC patient-derived lung adenocarcinoma cell line growth inhibition [RAS]
Settings: for pIC50: curve of first compound; for viability, T/C: stronger effect = lower value
In short: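 Agents were tested in combination matrices in half-log decrements from a top concentration at or near clinical Cmax (10 microM if undetermined). Targets were multi-cell spheroids of tumour lines plus HUVEC and MSC stromal cells.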
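Note: spheroids exposed to agents for one week before readout.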
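Throughout, for viability, T/C: tumour cells co-cultured with HUVEC and mesenchymal stem cells in spheroids.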

With `CC1(C)CCC(Nc2ncc(C(F)(F)F)c(-c3c[nH]c4c(P(C)(C)=O)c(C#N)ccc34)n2)CN1` (configuration not stated) + C#Cc1c(F)ccc2cc(O)cc(-c3ncc4c(N5CC6CCC(C5)N6)nc(OCC56CCCN5CC(F)C6)nc4c3F)c12 the pIC50 (second compound 0.0316 µM) was 7.26, the pIC50 (second compound 0.1 µM) was 7.46 and the pIC50 (second compound 0.316 µM) was 7.25. The pIC50 (second compound 1 µM) was 7.30, the pIC50 (second compound 3.16 µM) was 7.07 and the pIC50 (second compound 10 µM) was 6.73. For the same compound, the viability, T/C (second compound 0.0316 µM, first compound 0.000949 µM) was 93.6%, the viability, T/C (second compound 0.0316 µM, first compound 0.003 µM) was 83.7% and the viability, T/C (second compound 0.0316 µM, first compound 0.00949 µM) was 89.6%. The viability, T/C (second compound 0.0316 µM, first compound 0.03 µM) was 65.2%, the viability, T/C (second compound 0.0316 µM, first compound 0.0949 µM) was 37.2% and the viability, T/C (second compound 0.0316 µM, first compound 0.3 µM) was 32%. It also gave a viability, T/C (second compound 0.1 µM, first compound 0.000949 µM) of 97.6%, a viability, T/C (second compound 0.1 µM, first compound 0.003 µM) of 100% and a viability, T/C (second compound 0.1 µM, first compound 0.00949 µM) of 83.8%. It also gave a viability, T/C (second compound 0.1 µM, first compound 0.03 µM) of 52.3%, a viability, T/C (second compound 0.1 µM, first compound 0.0949 µM) of 34.5% and a viability, T/C (second compound 0.1 µM, first compound 0.3 µM) of 29.1%. The viability, T/C (second compound 0.316 µM, first compound 0.000949 µM) was 89.9%, the viability, T/C (second compound 0.316 µM, first compound 0.003 µM) was 92% and the viability, T/C (second compound 0.316 µM, first compound 0.00949 µM) was 87%. The viability, T/C (second compound 0.316 µM, first compound 0.03 µM) was 63.3%, the viability, T/C (second compound 0.316 µM, first compound 0.0949 µM) was 39% and the viability, T/C (second compound 0.316 µM, first compound 0.3 µM) was 32.9%. The viability, T/C (second compound 1 µM, first compound 0.000949 µM) was 96.9%, the viability, T/C (second compound 1 µM, first compound 0.003 µM) was 87.5% and the viability, T/C (second compound 1 µM, first compound 0.00949 µM) was 104%. It also gave a viability, T/C (second compound 1 µM, first compound 0.03 µM) of 60.8%, a viability, T/C (second compound 1 µM, first compound 0.0949 µM) of 40% and a viability, T/C (second compound 1 µM, first compound 0.3 µM) of 33.6%. It also gave a viability, T/C (second compound 3.16 µM, first compound 0.000949 µM) of 100%, a viability, T/C (second compound 3.16 µM, first compound 0.003 µM) of 93.6% and a viability, T/C (second compound 3.16 µM, first compound 0.00949 µM) of 86.6%. It also gave a viability, T/C (second compound 3.16 µM, first compound 0.03 µM) of 82.5%, a viability, T/C (second compound 3.16 µM, first compound 0.0949 µM) of 45.6% and a viability, T/C (second compound 3.16 µM, first compound 0.3 µM) of 39.9%. The viability, T/C (second compound 10 µM, first compound 0.000949 µM) was 99.8%, the viability, T/C (second compound 10 µM, first compound 0.003 µM) was 88.7% and the viability, T/C (second compound 10 µM, first compound 0.00949 µM) was 73.7%. The viability, T/C (second compound 10 µM, first compound 0.03 µM) was 72.9%, the viability, T/C (second compound 10 µM, first compound 0.0949 µM) was 56.9% and the viability, T/C (second compound 10 µM, first compound 0.3 µM) was 44.2%.

With `CC1(C)CCC(Nc2ncc(C(F)(F)F)c(-c3c[nH]c4c(P(C)(C)=O)c(C#N)ccc34)n2)CN1` (configuration not stated) the viability, T/C (compound 0.000949 µM) was 102% [middle of 4 runs], the viability, T/C (compound 0.03 µM) was 44.5% [middle of 4 runs] and the viability, T/C (compound 0.0949 µM) was 33% [middle of 4 runs]. For the same compound, the viability, T/C (compound 0.3 µM) was 28.3% [middle of 4 runs] and the IC50 (curve of compound) was 27.1 nM [middle of 4 runs].
